Test results from patent publication US20120101100A1 (priority 2008, published 2012).
Structures can show the parent of a compound that is named as a salt.

target: S. aureus GyrB ATPase (Staphylococcus aureus, UniProt P0A0K8); assay: S. aureus (SAU) GyrB ATPase inhibition, malachite green phosphate detection (E. coli GyrA + S. aureus GyrB); assay type: biochemical; conditions: compound concentration of 1.0 μM unless otherwise noted; average value where assay was carried out more than once; read-out: S. aureus (SAU) GyrB ATPase % Inhibition
Sequence (P0A0K8 whole entry): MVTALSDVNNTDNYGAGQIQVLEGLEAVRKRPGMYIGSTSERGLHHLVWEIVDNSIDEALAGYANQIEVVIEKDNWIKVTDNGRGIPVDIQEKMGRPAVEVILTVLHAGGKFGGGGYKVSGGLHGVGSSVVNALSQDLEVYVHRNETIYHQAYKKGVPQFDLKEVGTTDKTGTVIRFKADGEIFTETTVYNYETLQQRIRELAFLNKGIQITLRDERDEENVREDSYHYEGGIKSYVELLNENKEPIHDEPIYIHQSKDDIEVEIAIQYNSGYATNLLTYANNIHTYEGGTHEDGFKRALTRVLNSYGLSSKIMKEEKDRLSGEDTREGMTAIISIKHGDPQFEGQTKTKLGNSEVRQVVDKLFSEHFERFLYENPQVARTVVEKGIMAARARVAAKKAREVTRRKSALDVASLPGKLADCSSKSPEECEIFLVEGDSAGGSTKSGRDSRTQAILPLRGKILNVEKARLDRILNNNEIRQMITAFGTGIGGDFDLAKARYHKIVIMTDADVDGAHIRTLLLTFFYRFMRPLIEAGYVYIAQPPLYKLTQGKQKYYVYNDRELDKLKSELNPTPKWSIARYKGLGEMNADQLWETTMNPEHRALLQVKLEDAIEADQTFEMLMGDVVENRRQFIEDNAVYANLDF
Sequence (P0AES4 whole entry, further chain): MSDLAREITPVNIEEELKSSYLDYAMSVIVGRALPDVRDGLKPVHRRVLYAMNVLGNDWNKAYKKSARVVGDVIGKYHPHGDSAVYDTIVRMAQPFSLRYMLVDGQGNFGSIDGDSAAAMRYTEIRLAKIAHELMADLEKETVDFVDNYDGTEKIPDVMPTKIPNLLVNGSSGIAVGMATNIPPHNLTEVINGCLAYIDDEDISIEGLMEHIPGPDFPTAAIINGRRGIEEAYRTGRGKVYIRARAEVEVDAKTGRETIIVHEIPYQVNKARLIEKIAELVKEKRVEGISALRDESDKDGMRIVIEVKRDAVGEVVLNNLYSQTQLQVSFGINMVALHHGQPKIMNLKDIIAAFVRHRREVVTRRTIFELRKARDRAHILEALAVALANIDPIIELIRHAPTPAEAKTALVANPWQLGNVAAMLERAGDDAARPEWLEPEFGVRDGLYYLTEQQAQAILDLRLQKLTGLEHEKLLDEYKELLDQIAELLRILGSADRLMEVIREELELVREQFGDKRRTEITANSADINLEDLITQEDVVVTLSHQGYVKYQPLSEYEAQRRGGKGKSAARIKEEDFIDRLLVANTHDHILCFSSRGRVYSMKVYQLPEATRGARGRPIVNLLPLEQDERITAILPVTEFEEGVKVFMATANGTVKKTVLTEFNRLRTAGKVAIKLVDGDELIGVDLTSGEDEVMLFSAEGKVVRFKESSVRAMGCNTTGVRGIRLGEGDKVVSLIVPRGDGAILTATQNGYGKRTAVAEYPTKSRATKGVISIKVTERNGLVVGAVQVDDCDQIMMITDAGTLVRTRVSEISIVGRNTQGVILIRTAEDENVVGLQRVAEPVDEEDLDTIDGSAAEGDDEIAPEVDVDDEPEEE
Description: Compounds were tested for inhibition of GyrB ATPase activity using an ammonium molybdate/malachite green-based phosphate detection assay (Lanzetta, P. A., L. J. Alvarez, P. S. Reinach, and O. A. Candia, 1979, 100: 95-97). Assays were performed in multiwell plates in 100 μl reactions containing: 50 mM Hepes buffer pH 7.5, 75 mM ammonium acetate, 8.0 mM magnesium chloride, 1.0 mM ethylenediaminetetraacetic acid, 5% glycerol, 2 mM 1,4-Dithio-DL-threitol, 400 nM bovine serum albumin, 5 μg/ml sheared salmon sperm DNA, 1.25 nM E. coli GyrA, 1.25 nM S. aureus GyrB, 500 μM ATP, and compound in dimethylsulfoxide. Reactions were quenched with 150 μl of ammonium molybdate/malachite green detection reagent containing 1.2 mM malachite green hydrochloride, 8.5 mM ammonium molybdate tetrahydrate, and 1 M hydrochloric acid. Plates were read in an absorbance plate reader at 650 nm and percent inhibition values were calculated using dimethylsulfoxide (2%)-containing reactions as 0% inhibition and novobiocin-containing (2 μM) reactions as 100% inhibition controls. Compound potency was based on IC50 measurements determined from reactions performed in the presence of 10 different compound concentrations.

Row | Structure (SMILES) | inhibition at 1 µM [%]
1 | CCNC(=O)Nc1cc(-c2nc(C(F)(F)F)cs2)c(-c2cc(-c3n[nH]c(=O)o3)cnc2OCCN(CC)CC)cn1 [Example 119] | 96
2 | CCNC(=O)Nc1cc(-c2nc(C(F)(F)F)cs2)c(-c2cncc(C3=NOS(=O)N3)c2)cn1 (centres unmarked) [Example 20] | 111
3 | CCNC(=O)Nc1cc(-c2nc(C3CCCC3)cs2)c(-c2cncc(-c3n[nH]c(=O)o3)c2)cn1 [Example 209] | 95
4 | CCNC(=O)Nc1cc(-c2nc(C(F)(F)F)c(CNC3CCOCC3)s2)c(-c2cncc(-c3nnc(C)o3)c2)cn1 [Example 58, 1-ethyl-3-(5′-(5-methyl-1,3,4-oxadiazol-2-yl)-4-(5-((tetrahydro-2H-pyran-4-ylamino)methyl)-4-(trifluoromethyl)thiazol-2-yl)-3,3′-bipyridin-6-yl)urea] | 97
5 | CCNC(=O)Nc1cc(-c2nc(C(F)(F)F)cs2)c(-c2cc(-c3n[nH]c(=O)o3)cnc2OCC2CC2)cn1 [Example 216] | 96
6 | CCNC(=O)Nc1cc(-c2nc(-c3cnn(C)c3)cs2)c(-c2cncc(-c3n[nH]c(=O)o3)c2)cn1 [Example 27, 1-ethyl-3-(4-(4-(1-methyl-1H-pyrazol-4-yl)thiazol-2-yl)-5′-(5-oxo-4,5-dihydro-1,3,4-oxadiazol-2-yl)-3,3′-bipyridin-6-yl)urea] | 109
7 | CCNC(=O)Nc1cc(-n2ccc(C(F)(F)F)n2)c(-c2cncc(-c3nnc([C@@H](N)C(C)C)o3)c2)cn1 [Example 165] | 98
8 | CCNC(=O)Nc1cc(-c2nc(-c3ccccc3)cs2)c(-c2cc(-c3nnc(C)o3)cnc2CC)cn1 [Example 74] | 94
9 | CCNC(=O)Nc1cc(-c2nc(C(F)(F)F)c(C(=O)NCCOC)s2)c(-c2cncc(-c3nnc(C)o3)c2)cn1 [Example 60, 2-(6-(3-ethylureido)-5′-(5-methyl-1,3,4-oxadiazol-2-yl)-3,3′-bipyridin-4-yl)-N-(2-methoxyethyl)-4-(trifluoromethyl)thiazole-5-carboxamide] | 92
10 | O=C(NCC1CC1)Nc1cc(-c2nc(C(F)(F)F)cs2)c(-c2cncc(-c3n[nH]c(=O)o3)c2)cn1 [Example 48, 1-(cyclopropylmethyl)-3-(5′-(5-oxo-4,5-dihydro-1,3,4-oxadiazol-2-yl)-4-(4-(trifluoromethyl)thiazol-2-yl)-3,3′-bipyridin-6-yl)urea] | 95
11 | CCNC(=O)Nc1cc(-c2nc(C(F)(F)F)cs2)c(-c2cncc(-c3nnc(N4CCN(C)CC4)o3)c2)cn1 [Example 155] | 96
12 | CCNC(=O)Nc1cc(-c2nc(C(F)(F)F)cs2)c(-c2cncc(-c3nnc(N4CCCC(O)C4)o3)c2)cn1 (centres unmarked) [Example 181] | 97
13 | CCNC(=O)Nc1cc(-c2nc(C(F)(F)F)cs2)c(-c2ccnc(-c3nnc(C)o3)c2)cn1 [Example 228] | 93
14 | CCNC(=O)Nc1cc(-c2nc(C(F)(F)F)cs2)c(-c2cncc(-c3n[nH]c(=O)o3)n2)cn1 [Example 35, 1-ethyl-3-(5-(6-(5-oxo-4,5-dihydro-1,3,4-oxadiazol-2-yl)pyrazin-2-yl)-4-(4-(trifluoromethyl)thiazol-2-yl)pyridin-2-yl)urea] | 103
15 | CCNC(=O)Nc1cc(-c2nc(C(F)(F)F)cs2)c(-c2cncc(S(N)(=O)=O)c2)cn1 [Example 23, 6′-(3-Ethylureido)-4′-(4-(trifluoromethyl)thiazol-2-yl)-3,3′-bipyridine-5-sulfonamide] | 110
16 | CCNC(=O)Nc1cc(-c2nc(C(F)(F)F)c(C(=O)NCCN3CCOCC3)s2)c(-c2cncc(-c3n[nH]c(=O)o3)c2)cn1 [Example 61, 2-(6-(3-ethylureido)-5′-(5-oxo-4,5-dihydro-1,3,4-oxadiazol-2-yl)-3,3′-bipyridin-4-yl)-N-(2-morpholinoethyl)-4-(trifluoromethyl)thiazole-5-carboxamide] | 95
17 | CCNC(=O)Nc1cc(-c2nc(C(F)(F)F)cs2)c(-c2cncc(C#N)n2)cn1 [Example 31, 1-(5-(6-cyanopyrazin-2-yl)-4-(4-(trifluoromethyl)thiazol-2-yl)pyridin-2-yl)-3-ethylurea] | 113
18 | CCCNC(=O)Nc1cc(-c2nc(C(F)(F)F)cs2)c(-c2cc(-c3nnc(C)o3)cnc2OCCN2CCCC2)cn1 [Example 168] | 69

Row | Structure (SMILES) | inhibition at 1 µM [%]
19 | CCNC(=O)Nc1cc(-c2nc(-c3cnn(C)c3)cs2)c(-c2cncc(-c3nnc(C)o3)c2)cn1 [Example 233, 1-ethyl-3-(5′-(5-methyl-1,3,4-oxadiazol-2-yl)-4-(4-(1-methyl-1H-pyrazol-4-yl)thiazol-2-yl)-3,3′-bipyridin-6-yl)urea] | 100
20 | CCNC(=O)Nc1cc(-c2nc(-c3cccc(OC)n3)cs2)c(-c2ccnc(-c3n[nH]c(=O)o3)c2)cn1 [Example 248, 1-ethyl-3-(4-(4-(6-methoxypyridin-2-yl)thiazol-2-yl)-2′-(5-oxo-4,5-dihydro-1,3,4-oxadiazol-2-yl)-3,4′-bipyridin-6-yl)urea] | 104
21 | CCNC(=O)Nc1cc(-c2nc(C(F)(F)F)cs2)c(-c2cc(-c3n[nH]c(=O)o3)cnc2OC2CCN(C(C)C)CC2)cn1 [Example 219] | 97
22 | CCNC(=O)Nc1cc(-c2nc(C(F)(F)F)c(CNC3CCCC3)s2)c(-c2cncc(-c3n[nH]c(=O)o3)c2)cn1 [Example 53, 1-(4-(5-((cyclopentylamino)methyl)-4-(trifluoromethyl)thiazol-2-yl)-5′-(5-hydroxy-1,3,4-oxadiazol-2-yl)-3,3′-bipyridin-6-yl)-3-ethylurea hydrochloride] | 109
23 | CCNC(=O)Nc1cc(-c2nc(-c3cccc(OC)n3)cs2)c(-c2ccnc(-c3nnc(C)o3)c2)cn1 [Example 249, 1-ethyl-3-(4-(4-(6-methoxypyridin-2-yl)thiazol-2-yl)-2′-(5-methyl-1,3,4-oxadiazol-2-yl)-3,4′-bipyridin-6-yl)urea] | 97
24 | CCNC(=O)Nc1cc(-c2nc(C(F)(F)F)cs2)c(-c2cncc(S(C)(=O)=O)c2)cn1 [Example 22, 1-Ethyl-3-(5′-(methylsulfonyl)-4-(4-(trifluoromethyl)thiazol-2-yl)-3,3′-bipyridin-6-yl)urea] | 114
25 | CCNC(=O)Nc1cc(-c2ccc(N3CCOCC3)cc2)c(-c2cncc(-c3n[nH]c(=O)o3)c2)cn1 [Example 108, 1-Ethyl-3-(4-(4-morpholinophenyl)-5′-(5-oxo-4,5-dihydro-1,3,4-oxadiazol-2-yl)-3,3′-bipyridin-6-yl)urea] | 103
26 | CCNC(=O)Nc1cc(-c2nc(C(F)(F)F)cs2)c(-c2cc(-c3n[nH]c(=O)o3)cnc2OC[C@H](C)O)cn1 [Example 226] | 109
27 | CCNC(=O)Nc1cc(-c2nc(C(F)(F)F)cs2)c(-c2cc(-c3nnc(C)o3)cnc2OC2CCNCC2)cn1 [Example 110, 1-Ethyl-3-{5′-(5-methyl-1,3,4-oxadiazol-2-yl)-2′-(piperidin-4-yloxy)-4-[4-(trifluoromethyl)-1,3-thiazol-2-yl]-3,3′-bipyridin-6-yl}urea] | 95
28 | CCNC(=O)Nc1cc(-c2nc(C(F)(F)F)cs2)c(-c2cc(-c3n[nH]c(=O)o3)cnc2CC)cn1 [Example 71, 1-ethyl-3-(2′-ethyl-5′-(5-hydroxy-1,3,4-oxadiazol-2-yl)-4-(4-(trifluoromethyl)thiazol-2-yl)-3,3′-bipyridin-6-yl)urea] | 93
29 | CCNC(=O)Nc1cc(-c2nc(-c3ccccc3)cs2)c(-c2cc(OC(C)C)nc(-c3n[nH]c(=O)o3)c2)cn1 [Example 81, 1-ethyl-3-(2′-isopropoxy-6′-(5-oxo-4,5-dihydro-1,3,4-oxadiazol-2-yl)-4-(4-phenylthiazol-2-yl)-3,4′-bipyridin-6-yl)urea] | 94
30 | CCNC(=O)Nc1cc(-c2nc(C(F)(F)F)cs2)c(-c2cncc(-c3nnc(N)o3)c2)cn1 [Example 136, 1-(5′-(5-Amino-1,3,4-oxadiazol-2-yl)-4-(4-(trifluoromethyl)thiazol-2-yl)-3,3′-bipyridin-6-yl)-3-ethylurea] | 102
31 | CCNC(=O)Nc1cc(-c2nc(C(F)(F)F)cs2)c(-c2cncc(-c3nn(C(=O)N4CCCCC4)c(=O)o3)c2)cn1 [Example 177] | 86
32 | CCNC(=O)Nc1cc(-c2nc(C(F)(F)F)cs2)c(-c2cncc(-c3nnc([C@H](N)C(C)C)o3)c2)cn1 [Example 280, (R)-1-(5′-(5-(1-amino-2-methylpropyl)-1,3,4-oxadiazol-2-yl)-4-(4-(trifluoromethyl)thiazol-2-yl)-3,3′-bipyridin-6-yl)-3-ethylurea] | 95
33 | CCNC(=O)Nc1cc(-c2cn(Cc3ccccc3)nn2)c(-c2cc(-c3n[nH]c(=O)o3)ccn2)cn1 [Example 288] | 91
34 | CCNC(=O)Nc1cc(-c2nc(C(F)(F)F)cs2)c(-c2cc(-c3nnc(C)o3)cnc2OC2CC(C)(C)N(C)C(C)(C)C2)cn1 [Example 117, 1-Ethyl-3-(5′-(5-methyl-1,3,4-oxadiazol-2-yl)-2′-(1,2,2,6,6-pentamethylpiperidin-4-yloxy)-4-(4-(trifluoromethyl)thiazol-2-yl)-3,3′-bipyridin-6-yl)urea] | 105
35 | CCNC(=O)Nc1cc(-c2nc(C(F)(F)F)cs2)c(-c2cncc(-c3n[nH]c(=O)[nH]3)c2)cn1 [Example 135, 1-Ethyl-3-(5′-(5-oxo-4,5-dihydro-1H-1,2,4-triazol-3-yl)-4-(4-(trifluoromethyl)thiazol-2-yl)-3,3′-bipyridin-6-yl)urea] | 101
